In series [1] the target is Replicase polyprotein 1ab (Severe acute respiratory syndrome coronavirus 2, UniProt P0DTD1). Put plainly: Inhibition of full length N-terminal his6-tagged SARS-CoV-2 3CL protease using FAM-SAVLQ as substrate preincubated with compound for 30 mins followed by substrate addition and measured after 30 mins by FRET assay.
Series [2] can be described thus: Inhibition of MERS-CoV 3CLpro using SG-QXL520 as substrate preincubated with compound for 30 mins followed by susbtrate addition and measured after 30 mins by FRET assay. Further details: species or system Middle East respiratory syndrome-related coronavirus.
The subject of the next series is SARS-CoV-2. Put plainly: Antiviral activity against SARS CoV-2 Wuhan-Hu-1 infected in HEK293T cells incubated for 24 hrs. Type of series: functional, organism-based. The conditions noted are these: Severe acute respiratory syndrome coronavirus 2, Wuhan-Hu-1, HEK-293T.
Series [3] can be described thus: Cytotoxicity against cat CRFK cells incubated for 72 hrs by CytoTox 96 analysis. Type of series: toxicity, cell-based, Felis catus.

Some results are limits rather than exact numbers.

In the case of `CC(C)C[C@H](NC(=O)OC[C@@H]1CCC(=O)N1Cc1cccc(C(F)(F)F)c1)C(=O)N[C@@H](C[C@@H]1CCNC1=O)C(O)S(=O)(=O)O` (stereo partly drawn), the IC50 in series [1] amounted to 770 nM; in series [2], 50 nM. For the same molecule, the EC50 in the series on SARS-CoV-2 worked out at 490 nM. Besides, the CC50 at 72 h in series [3] was over 50000 nM.

For the molecule `CC(C)C[C@H](NC(=O)OCC1CC(=O)N(CC2CC3CCC2C3)C1)C(=O)N[C@@H](C[C@@H]1CCNC1=O)C(O)S(=O)(=O)O` (stereo partly drawn), the IC50 in series [1] came out at 170 nM; in series [2], 70 nM. The molecule also displayed an EC50 with SARS-CoV-2 of 80 nM. The CC50 at 72 h in series [3] was over 50000 nM.

On to `CC(C)C[C@H](NC(=O)OC[C@@H]1CCC(=O)N1Cc1cccc(C(F)(F)F)c1)C(=O)N[C@H](C=O)C[C@@H]1CCNC1=O`, for which the IC50 in series [1] was 740 nM; in series [2] it was 50 nM. Further, the EC50 with SARS-CoV-2 amounted to 560 nM. The molecule further showed a CC50 at 72 h in series [3] of over 50000 nM.

Take `CC(C)C[C@H](NC(=O)OCC1CC(=O)N(CC2CCCCC2)C1)C(=O)N[C@@H](C[C@@H]1CCNC1=O)C(O)S(=O)(=O)O` (stereo partly drawn): the results for the IC50 in series [1] and in series [2] were 370 nM and 50 nM, respectively. The molecule also had an EC50 with SARS-CoV-2 of 150 nM. Besides, the CC50 at 72 h in series [3] is over 50000 nM.

`CC(C)C[C@H](NC(=O)OC[C@@H]1CCC(=O)N1CC1CCCCC1)C(=O)N[C@@H](C[C@@H]1CCNC1=O)C(O)S(=O)(=O)O` (stereo partly drawn): the values for the IC50 in series [1] and in series [2] were 280 nM and 60 nM, respectively. The EC50 with SARS-CoV-2 came out at 790 nM. Also, the CC50 at 72 h in series [3] is over 50000 nM.

In the case of `CC(C)C[C@H](NC(=O)OCC1CC(=O)N(CC2CC3CCC2C3)C1)C(=O)N[C@H](C=O)C[C@@H]1CCNC1=O` (stereo partly drawn), the IC50 in series [1] turned out to be 160 nM; in series [2], 60 nM. This molecule also had a concentration giving a half-maximal response (EC50) in the series with SARS-CoV-2 of 120 nM. In addition, the CC50 at 72 h in series [3] was over 50000 nM.

As to `CC(C)C[C@H](NC(=O)OC[C@@H]1CCC(=O)N1Cc1cccc(Cl)c1)C(=O)N[C@H](C=O)C[C@@H]1CCNC1=O`, the IC50 in series [1] came out at 110 nM; in series [2], 17 nM. This molecule showed an EC50 with SARS-CoV-2 of 110 nM. In series [3], this molecule yielded a CC50 at 72 h of over 50000 nM.

Take `CC(C)C[C@H](NC(=O)OC[C@@H]1CCC(=O)N1Cc1cccc(F)c1)C(=O)N[C@H](C=O)C[C@@H]1CCNC1=O`: the IC50 in series [1] was 110 nM; in series [2], 430 nM. The molecule also returned an EC50 with SARS-CoV-2 of 50 nM. Besides, in series [3], the CC50 at 72 h was over 50000 nM.

With `CC(C)C[C@H](NC(=O)OCC1CC(=O)N(CC2CCCCC2)C1)C(=O)N[C@H](C=O)C[C@@H]1CCNC1=O` (stereo partly drawn), the IC50 is 310 nM in series [1] and 50 nM in series [2]. A half-maximal effect in the series on SARS-CoV-2 (EC50) was put at 130 nM. In series [3], this molecule gave a CC50 at 72 h of over 50000 nM.

Regarding `CC(C)C[C@H](NC(=O)OCC1CCN(CC2CCCCC2)C1=O)C(=O)N[C@@H](C[C@@H]1CCNC1=O)C(O)S(=O)(=O)O` (stereo partly drawn), the results for the IC50 in series [1] and in series [2] were 220 nM and 170 nM, respectively. In the series on SARS-CoV-2, a half-maximal response (EC50) required 20 nM. This molecule yielded a cytotoxic concentration (CC50) at 72 h in series [3] of over 50000 nM.

Take `CC(C)C[C@H](NC(=O)OC[C@@H]1CCC(=O)N1Cc1ccc2c(c1)OC(F)(F)O2)C(=O)N[C@@H](C[C@@H]1CCNC1=O)C(O)S(=O)(=O)O` (stereo partly drawn): the results for the IC50 in series [1] and in series [2] were 320 nM and 50 nM, respectively. In the series on SARS-CoV-2, the EC50 came to 450 nM. Besides, the CC50 at 72 h in series [3] was over 50000 nM.

Take `CC(C)C[C@H](NC(=O)OC[C@@H]1CCC(=O)N1Cc1cccc(F)c1)C(=O)N[C@@H](C[C@@H]1CCNC1=O)C(O)S(=O)(=O)O` (stereo partly drawn): the IC50 turned out to be 160 nM in series [1] and 240 nM in series [2]. In the series with SARS-CoV-2, this molecule yielded an EC50 of 40 nM. For the same molecule, the CC50 at 72 h in series [3] is over 50000 nM.

Source of the values: ChEMBL document CHEMBL5523732, “Structure-Guided Design of Potent Coronavirus Inhibitors with a 2-Pyrrolidone Scaffold: Biochemical, Crystallographic, and Virological Studies” (J Med Chem, 2024).
